Reference: ChEMBL document CHEMBL4152336, “Optimization of the first small-molecule relaxin/insulin-like family peptide receptor (RXFP1) agonists: Activation results in an antifibrotic gene expression profile” (Eur J Med Chem, 2018)
Activity calls are given as the source filed them. The rule behind the calls is not given here.

How the values were obtained:
Mus musculus [1] = experiment: Toxicity in C57/BL6 mouse assessed as body weight at 300 mg/kg, po treated for 5 days measured at day 10 post last dose (reference value: 20.7 +/- 2.6 g); format: organism-based; details: in vivo, 120 h
Mus musculus [2] = experiment: Toxicity in C57/BL6 mouse assessed as body weight at 3000 mg/kg, po treated for 5 days measured at day 3 post last dose (reference value: 19.8 +/- 2.5 g); format: organism-based; details: in vivo, 120 h
Mus musculus [3] = experiment: Toxicity in C57/BL6 mouse assessed as body weight at 3000 mg/kg, po treated for 5 days measured at day 10 post last dose (reference value: 20.7 +/- 2.6 g); format: organism-based; details: in vivo, 120 h
[4] = Drug level in C57/BL6 mouse heart at 3 mg/kg, iv after 24 hrs; format: ADME, organism-based; details: in vivo
Mus musculus [5] = experiment: Toxicity in C57/BL6 mouse at 3 to 30 mg/kg, iv; format: organism-based; details: in vivo
Mus musculus [6] = experiment: Toxicity in C57/BL6 mouse assessed as body weight at 90 mg/kg, po treated for 5 days measured at day 5 post last dose (reference value: 20.3 +/- 2.8 g); format: organism-based; details: in vivo, 120 h
Homo sapiens [7] = species: Homo sapiens; experiment: Upregulation of MMP1 gene expression in human HSC at 5 uM after 24 to 72 hrs by RT-qPCR analysis; format: functional
Homo sapiens [8] = species: Homo sapiens; experiment: Upregulation of PPARGC1A gene expression in human HSC at 5 uM after 24 to 72 hrs by RT-qPCR analysis; format: functional
[9] = Drug level in C57/BL6 mouse heart at 3 mg/kg, iv after 1 hr; format: ADME, organism-based; details: in vivo
Mus musculus [10] = experiment: Toxicity in C57/BL6 mouse assessed as body weight at 3000 mg/kg, po treated for 5 days measured at day 5 post last dose (reference value: 20.3 +/- 2.8 g); format: organism-based; details: in vivo, 120 h
Homo sapiens [11] = species: Homo sapiens; experiment: Down regulation of TGFB1 gene expression in human HSC at 5 uM after 24 to 72 hrs by RT-qPCR analysis; format: functional
Mus musculus [12] = experiment: Toxicity in C57/BL6 mouse assessed as body weight at 3000 mg/kg, po treated for 5 days measured at day 8 post last dose (reference value: 20.6 +/- 2.8 g); format: organism-based; details: in vivo, 120 h
Mus musculus [13] = experiment: Toxicity in C57/BL6 mouse assessed as body weight at 3000 mg/kg, po treated for 5 days measured at day 6 post last dose (reference value: 20.6 +/- 2.6 g); format: organism-based; details: in vivo, 120 h
Mus musculus [14] = experiment: Toxicity in C57/BL6 mouse assessed as body weight at 3000 mg/kg, po treated for 5 days measured at day 4 post last dose (reference value: 20.1 +/- 2.8 g); format: organism-based; details: in vivo, 120 h
[15] = Drug level in C57/BL6 mouse heart at 3 mg/kg, iv after 2 hrs; format: ADME, organism-based; details: in vivo
Mus musculus [16] = experiment: Toxicity in C57/BL6 mouse assessed as body weight at 90 mg/kg, po treated for 5 days measured at day 2 post last dose (reference value: 19.8 +/- 2.3 g); format: organism-based; details: in vivo, 120 h
Mus musculus [17] = experiment: Toxicity in C57/BL6 mouse assessed as body weight at 90 mg/kg, po treated for 5 days measured at day 9 post last dose (reference value: 20.7 +/- 2.9 g); format: organism-based; details: in vivo, 120 h
[18] = Drug level in C57/BL6 mouse heart at 30 mg/kg, po after 0.5 hrs; format: ADME, organism-based; details: in vivo
Mus musculus [19] = experiment: Toxicity in C57/BL6 mouse assessed as body weight at 300 mg/kg, po treated for 5 days measured at day 2 post last dose (reference value: 19.8 +/- 2.3 g); format: organism-based; details: in vivo, 120 h
Homo sapiens [20] = species: Homo sapiens; experiment: Down regulation of CTGF gene expression in human HSC at 5 uM after 24 to 72 hrs by RT-qPCR analysis; format: functional
[21] = Drug level in C57/BL6 mouse heart at 30 mg/kg, po after 1 hr; format: ADME, organism-based; details: in vivo
Mus musculus [22] = experiment: Toxicity in C57/BL6 mouse assessed as body weight at 300 mg/kg, po treated for 5 days measured at day 9 post last dose (reference value: 20.7 +/- 2.9 g); format: organism-based; details: in vivo, 120 h
Mus musculus [23] = experiment: Toxicity in C57/BL6 mouse assessed as body weight at 300 mg/kg, po treated for 5 days measured at day 5 post last dose (reference value: 20.3 +/- 2.8 g); format: organism-based; details: in vivo, 120 h
Homo sapiens [24] = species: Homo sapiens; experiment: Down regulation of ACTA2 gene expression in human HSC at 5 uM after 24 to 72 hrs by RT-qPCR analysis; format: functional
Mus musculus [25] = experiment: Toxicity in C57/BL6 mouse assessed as abnormal behavior at 3 to 30 mg/kg, iv; format: organism-based; details: in vivo
Mus musculus [26] = experiment: Toxicity in C57/BL6 mouse assessed as body weight at 300 mg/kg, po treated for 5 days measured at day 6 post last dose (reference value: 20.6 +/- 2.6 g); format: organism-based; details: in vivo, 120 h
[27] = Drug level in C57/BL6 mouse heart at 30 mg/kg, po after 5 hrs; format: ADME, organism-based; details: in vivo
[28] = Drug level in C57/BL6 mouse heart at 30 mg/kg, po after 1.5 hr; format: ADME, organism-based; details: in vivo
[29] = Drug level in C57/BL6 mouse heart at 30 mg/kg, po after 24 hrs; format: ADME, organism-based; details: in vivo, BLD = below limit of detection
[30] = Drug level in C57/BL6 mouse heart at 3 mg/kg, iv after 7 hrs; format: ADME, organism-based; details: in vivo
Mus musculus [31] = experiment: Toxicity in C57/BL6 mouse assessed as body weight at 90 mg/kg, po treated for 5 days measured at day 6 post last dose (reference value: 20.6 +/- 2.6 g); format: organism-based; details: in vivo, 120 h
Mus musculus [32] = experiment: Toxicity in C57/BL6 mouse assessed as body weight at 300 mg/kg, po treated for 5 days measured at day 4 post last dose (reference value: 20.1 +/- 2.8 g); format: organism-based; details: in vivo, 120 h
Mus musculus [33] = experiment: Toxicity in C57/BL6 mouse assessed as body weight at 90 mg/kg, po treated for 5 days measured at day 7 post last dose (reference value: 20.6 +/- 2.9 g); format: organism-based; details: in vivo, 120 h
Mus musculus [34] = experiment: Toxicity in C57/BL6 mouse assessed as body weight at 90 mg/kg, po treated for 5 days measured at day 1 post last dose (reference value: 20.3 +/- 2.6 g); format: organism-based; details: in vivo, 120 h
Mus musculus [35] = experiment: Toxicity in C57/BL6 mouse assessed as body weight at 3000 mg/kg, po treated for 5 days measured at day 9 post last dose (reference value: 20.7 +/- 2.9 g); format: organism-based; details: in vivo, 120 h
[36] = Drug level in C57/BL6 mouse heart at 3 mg/kg, iv after 3 hrs; format: ADME, organism-based; details: in vivo
Mus musculus [37] = experiment: Toxicity in C57/BL6 mouse assessed as body weight at 3000 mg/kg, po treated for 5 days measured at day 7 post last dose (reference value: 20.6 +/- 2.9 g); format: organism-based; details: in vivo, 120 h
Mus musculus [38] = experiment: Toxicity in C57/BL6 mouse assessed as body weight at 300 mg/kg, po treated for 5 days measured at day 8 post last dose (reference value: 20.6 +/- 2.8 g); format: organism-based; details: in vivo, 120 h
[39] = Drug level in C57/BL6 mouse heart at 3 mg/kg, iv after 0.08 hrs; format: ADME, organism-based; details: in vivo
Mus musculus [40] = experiment: Toxicity in C57/BL6 mouse assessed as body weight at 90 mg/kg, po treated for 5 days measured at day 8 post last dose (reference value: 20.6 +/- 2.8 g); format: organism-based; details: in vivo, 120 h
[41] = Drug level in C57/BL6 mouse heart at 3 mg/kg, iv after 0.5 hrs; format: ADME, organism-based; details: in vivo

Q: For CC(C)Oc1ccccc1C(=O)Nc1ccccc1C(=O)Nc1cccc(S(=O)(=O)C(F)(F)F)c1, which Activity (Mus musculus [1]) is on record?
A: 21.3 g

Q: What about the Activity (Mus musculus [2]) of the same compound?
A: 20.6 g

Q: What about the Activity (Mus musculus [3]) of the same compound?
A: 21.3 g

Q: What about the Drug uptake [4] of the same compound?
A: 0.109 µmol/kg

Q: What about the Activity (Mus musculus [5]) of the same compound?
A: Non-Toxic

Q: What about the Activity (Mus musculus [6]) of the same compound?
A: 20 g

Q: What about the Activity (Homo sapiens [7]) of the same compound?
A: Active

Q: And the Activity (Homo sapiens [8])?
A: Active

Q: What about the Drug uptake [9] of the same compound?
A: 1.395 µmol/kg

Q: And the Activity (Mus musculus [10])?
A: 20.8 g

Q: What about the Activity (Homo sapiens [11]) of the same compound?
A: Active

Q: What about the Activity (Mus musculus [12]) of the same compound?
A: 21.1 g

Q: And the Activity (Mus musculus [13])?
A: 21.1 g

Q: And the Activity (Mus musculus [14])?
A: 20.7 g

Q: What about the Drug uptake [15] of the same compound?
A: 1.206 µmol/kg

Q: And the Activity (Mus musculus [16])?
A: 19.9 g

Q: And the Activity (Mus musculus [17])?
A: 20.8 g

Q: And the Drug uptake [18]?
A: 1.428 µmol/kg

Q: And the Activity (Mus musculus [19])?
A: 20.1 g

Q: And the Activity (Homo sapiens [20])?
A: Active

Q: And the Drug uptake [21]?
A: 1.041 µmol/kg

Q: And the Activity (Mus musculus [22])?
A: 21 g

Q: What about the Activity (Mus musculus [23]) of the same compound?
A: 20.6 g

Q: And the Activity (Homo sapiens [24])?
A: Active

Q: And the Activity (Mus musculus [25])?
A: Non-Toxic

Q: And the Activity (Mus musculus [26])?
A: 20.8 g

Q: What about the Drug uptake [27] of the same compound?
A: 0.256 µmol/kg

Q: And the Drug uptake [28]?
A: 2.026 µmol/kg

Q: What about the Drug uptake [29] of the same compound?
A: Bld

Q: And the Drug uptake [30]?
A: 0.394 µmol/kg

Q: And the Activity (Mus musculus [31])?
A: 20.4 g

Q: And the Activity (Mus musculus [32])?
A: 20.4 g

Q: What about the Activity (Mus musculus [33]) of the same compound?
A: 20.4 g

Q: What about the Activity (Mus musculus [34]) of the same compound?
A: 19.9 g

Q: What about the Activity (Mus musculus [35]) of the same compound?
A: 21.2 g

Q: What about the Drug uptake [36] of the same compound?
A: 0.6 µmol/kg

Q: And the Activity (Mus musculus [37])?
A: 21.2 g

Q: And the Activity (Mus musculus [38])?
A: 21.2 g

Q: What about the Drug uptake [39] of the same compound?
A: 4.12 µmol/kg

Q: And the Activity (Mus musculus [40])?
A: 20.6 g

Q: What about the Drug uptake [41] of the same compound?
A: 2.001 µmol/kg
